We go through 1 molecule from PMC12030314, “Biomarker-Driven Pharmacokinetics and Efficacy of Polymyxin B in Critically Ill Patients with XDR-GN Pneumonia” (Pharmaceuticals, 2025).

Data set [1] can be described thus: PMB concentration in epithelial lining fluid (BAL, urea dilution method). In kind it is in vivo. Conditions: human, iv, 50 mg; for Kp at 96 h: epithelial lining fluid / plasma, read-out: ELF/plasma ratio; for level at 96 h: epithelial lining fluid; for Cmax: plasma, patients with BAL samples. Here is the method:
BAL sample collection was possible for 15 of the patients. If the patients’ respiratory status permitted, one BAL was performed immediately after the seventh dose (on day 4 of treatment). Four 20 mL aliquots of sterile 0.9% normal saline solution were instilled, immediately aspirated, and placed on ice. The aspirate from the first 20 mL instillation was collected and discarded. The aspirates recovered from the second, third, and fourth instillations were pooled.
Blood and BAL samples were centrifuged for 10 min (3000 rpm) and immediately stored at −80 °C until analysis.
PMB concentrations in the samples were quantified by monitoring the total concentrations of polymyxin B1 (PB1), polymyxin B2 (PB2), polymyxin B3 (PB3), and isoleucine polymyxin B1 (I-PB1) via a validated ultraperformance liquid chromatography–tandem mass spectrometry (UPLC-MS/MS) assay. The standard substances, including PB1 (CAS P037), PB2 (CAS P037), PB3 (CAS P040), and I-PB1 (CAS P038), were purchased by TOKU-E Company (>99% pure, Bellingham, WA, USA). ACQUITY UPLC system, Quattro PremierXE triple quadrupole mass spectrometer, electrospray isonizaiton source (ESI), and Masslynx 4.1 data processing software were used in this study (Waters Company, Milford, MA, USA). An Acquity UPLC BEH C18 column (50 mm × 2.1 mm internal diameter, 1.8 μm) purchased from Waters (Milford, MA, USA) was used. The mobile phase comprised a 0.2% formic acid aqueous solution and a 0.2% formic acid acetonitrile solution, and the flow rate was 0.3 mL/min. Mass spectrometric detection was performed in positive electrospray ionization (ESI+) mode with multiple reaction monitoring (MRM). The optimized transitions were set as follows: m/z 602.7→101.0 for PB1 and I-PB1, m/z 595.7→100.9 for PB2 and PB3, and […] for the internal standard norvancomycin. Plasma and BAL supernatant was aliquoted into microcentrifuge tubes and sequentially treated with 20 μL norvancomycin or 200 μL 5% trichloroacetic acid. 1 μL plasma and 2 μL BAL of supernatant were collected separately for the detection of PMB concentrations.
The ELF recovery rate was calculated via the urea dilution method, as reported in previous studies. The concentration of urea was analysed with a commercial kit purchased from Beijing Solarbio Science & Technology Co., Ltd., Beijing, China (BC1535). The concentration of PMB in the ELF (ELF[PMB]) was measured by using urea as an endogenous marker of ELF dilution via the following equation: ELF[PMB] = BAL[PMB] × (blood urea/BAL[Urea]), where BAL[PMB] is the concentration of PMB in BAL and BAL[Urea] is the concentration of urea in BAL.

For data set [2], the system named is XDR-GN bacterial nosocomial pneumonia. The data set is described as follows: Clinical efficacy (treatment success) of PMB. Conditions: 27 enrolled patients; iv 100 mg loading, 50 mg q12h. In kind it is in vivo, human. From the text: The decision to administer PMB was made by the attending physicians. Patients with conditions that could alter the PK of PMB, who had rapidly declining or fluctuating renal function (serum creatinine ± 50% since the start of therapy, who could affect the removal of drugs from the body), who were pregnant (hormone levels, increased blood volume, and other factors affecting drug processes), who had severe burns/head/spinal cord injury (high metabolic status, fluid redistribution, reduced plasma protein levels, and other factors affecting drug processes), who had cystic fibrosis (decreased distribution of PMB in lungs), or who were severely under- or overweight (±40% of ideal body weight, changes of fat volume, and body surface area affecting drug processes) were excluded. The study was approved by the Ethics Committees of Peking Union Medical College Hospital and the Declaration of Helsinki. Written informed consent was obtained from all patients or their legal representatives.
The primary PD response was evaluated by PK/PD indices. […] The secondary PD response was evaluated by clinical parameters. […] The percentage of patients who achieved the PK/PD targets or treatment success was calculated. Variables potentially related to clinical efficacy were assessed. […] The optimal cutoff point for the PK/PD indices was calculated with the Youden index.

The nature of a further data set: PK/PD targets attainment. In kind it is in vivo, human. Here is the method: The primary PD response was evaluated by PK/PD indices. An AUCss,0–24h of 50–100 mg·hour/L or a Css,avg of 2–4 mg/L was used as the PK/PD targets for PMB. The secondary PD response was evaluated by clinical parameters. An achievement of the treatment success at the end of treatment was defined by either (1) physicians’ judgment of improvement in signs and symptoms (reasonable compromise on the basis of survival, stable, or improved haemodynamics and oxygenation index and improved chemical and physiological indices of infection) or (2) microbiological elimination. […] The percentage of patients who achieved the PK/PD targets or treatment success was calculated. Variables potentially related to clinical efficacy were assessed. Receiver operating characteristic (ROC) curves were drawn to investigate and compare different indices as predictors of clinical efficacy. The optimal cutoff point for the PK/PD indices was calculated with the Youden index.

Data set [3] is described as follows: Nephrotoxicity during PMB therapy. In kind it is in vivo, human. The protocol: Patient characteristics and laboratory data, including age, sex, weight, medical history, Acute Physiology And Chronic Health Evaluation (APACHE) II score, Sequential Organ Failure Assessment (SOFA) score, estimated creatinine clearance, arterial blood gas analysis, life support interventions, infection site, and type of pathogen, were recorded before PMB administration. The anti-infection therapeutic regimen, course, and incidence of PMB-related adverse reactions were recorded during the study. The creatinine clearance rate (CCr) was calculated with the formula: Ccr = (140 − age) × weight (kg)/[72 × serum creatinine (mg/dL)] for male and Ccr = (140 − age) × weight(kg)/[85 × serum creatinine (mg/dL)] for female. Nephrotoxicity was defined as an increase in serum creatinine of ≥0.3 mg/dL within 48 h or an increase in serum creatinine to ≥1.5 times higher than baseline.

The structures appear in SMILES notation. Where two headings read alike, the source gives them in different places. Where a SMILES comes first, the peptide text is derived from it. Bridges are numbered along the chain shown (N, C = ends). [ ]: non-standard residue; d: D form. The star is where a group is joined. X1 = CC[C@H](C)CCCCC(=O)*; Dab = NCC[C@H](N)C(=O)O

Consider `CC[C@H](C)CCCCC(=O)N[C@@H](CCN)C(=O)N[C@H](C(=O)N[C@@H](CCN)C(=O)N[C@H]1CCNC(=O)[C@H]([C@@H](C)O)NC(=O)[C@H](CCN)NC(=O)[C@H](CCN)NC(=O)[C@H](CC(C)C)NC(=O)[C@@H](Cc2ccccc2)NC(=O)[C@H](CCN)NC1=O)[C@@H](C)O` [PMB, polymyxin B] (X1-[Dab]T[Dab][Dab][Dab][dF]L[Dab][Dab]T; lactam 4-C), for which the Kp at 96 h in data set [1] (treatment failure group, median [IQR]) amounted to 0.088; in data set [1] (treatment success group, median [IQR]), 0.17. Besides, the level at 96 h in data set [1] (BAL immediately after the seventh dose (day 4), urea dilution method, median and IQR, read-out: ELF concentration) was found to be 900 ng/mL; in data set [1] (treatment failure group, median [IQR], read-out: PMB concentration in the ELF) it was 980 ng/mL; in data set [1] (treatment success group, median [IQR], read-out: PMB concentration in the ELF), 840 ng/mL. Besides, the Cmax was found to be 7460 ng/mL in data set [1] (median and IQR, read-out: plasma Cmax); 11100 ng/mL in data set [1] (treatment failure group, median [IQR], read-out: Cmax); 5940 ng/mL in data set [1] (treatment success group, median [IQR], read-out: Cmax). Further, the “treatment success (response rate)” value in data set [2] amounted to 81.48%. For the same molecule, in “PK/PD targets attainment” (9 patients), the “treatment success among patients who reached the target Css,avg of 2–4 mg/L” value is listed as 77.78%. The “treatment success among patients who reached the target AUCss,0–24h of 50–100” value in the data set “PK/PD targets attainment” (13 patients) came out at 76.95%. Further, the “treatment success among patients who exceeded the target AUCss,0–24h” value in the data set “PK/PD targets attainment” (in vivo) was found to be 92.31%. Further, the Nephrotoxicity in data set [3] (Total (n = 27), serum creatinine increase ≥0.3 mg/dL within 48 h or ≥1.5 times baseline) is 4 (14.81) n (%). In addition, the “number of patients who suffered from nephrotoxicity” value in data set [3] (when PMB medication was administered, 27 patients) is “four”.

Broadly, the Cmax is the peak of the concentration-time curve.
